US20160185797A1, “ALKYNYL ALCOHOLS AND METHODS OF USE” (Genentech, Inc., priority 2013, published 2016)
Like-named read-outs stand apart in the source and are kept apart here.

Legend:
[1] = tested on: p52 (NF-kB2) nuclear translocation in HeLa cells; experiment: p52 (NF-kB2) nuclear translocation assay in HeLa cells, anti-lymphotoxin beta receptor antibody stimulated (non-classical NF-kB signaling), high content imaging; format: cell-based; details: 100 ng/mL anti-lymphotoxin beta receptor antibody for 5 hours, read-out: p52 HeLa Transloc Assay (IC50)
How it was run: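 HeLa cells in 10% FBS medium were treated with compound (0.2% DMSO final) and stimulated with 100 ng/mL anti-lymphotoxin beta receptor antibody for 5 h. Fixed cells were immunostained for p52 and imaged with DRAQ5 nuclear stain. Translocation is the nuclear to cytoplasmic intensity ratio, […].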

[2] = molecular target: T1, nuclear factor-kappa B (NF-kB)-inducing kinase (NIK) (Homo sapiens, UniProt Q99558); experiment: NIK enzyme inhibition assay (Transcreener ADP fluorescence polarization, NIK ADP-FP); format: biochemical
T1 construct: made in house; host or cells: baculovirus-infected insect cells
T1 sequence (Q99558 whole entry): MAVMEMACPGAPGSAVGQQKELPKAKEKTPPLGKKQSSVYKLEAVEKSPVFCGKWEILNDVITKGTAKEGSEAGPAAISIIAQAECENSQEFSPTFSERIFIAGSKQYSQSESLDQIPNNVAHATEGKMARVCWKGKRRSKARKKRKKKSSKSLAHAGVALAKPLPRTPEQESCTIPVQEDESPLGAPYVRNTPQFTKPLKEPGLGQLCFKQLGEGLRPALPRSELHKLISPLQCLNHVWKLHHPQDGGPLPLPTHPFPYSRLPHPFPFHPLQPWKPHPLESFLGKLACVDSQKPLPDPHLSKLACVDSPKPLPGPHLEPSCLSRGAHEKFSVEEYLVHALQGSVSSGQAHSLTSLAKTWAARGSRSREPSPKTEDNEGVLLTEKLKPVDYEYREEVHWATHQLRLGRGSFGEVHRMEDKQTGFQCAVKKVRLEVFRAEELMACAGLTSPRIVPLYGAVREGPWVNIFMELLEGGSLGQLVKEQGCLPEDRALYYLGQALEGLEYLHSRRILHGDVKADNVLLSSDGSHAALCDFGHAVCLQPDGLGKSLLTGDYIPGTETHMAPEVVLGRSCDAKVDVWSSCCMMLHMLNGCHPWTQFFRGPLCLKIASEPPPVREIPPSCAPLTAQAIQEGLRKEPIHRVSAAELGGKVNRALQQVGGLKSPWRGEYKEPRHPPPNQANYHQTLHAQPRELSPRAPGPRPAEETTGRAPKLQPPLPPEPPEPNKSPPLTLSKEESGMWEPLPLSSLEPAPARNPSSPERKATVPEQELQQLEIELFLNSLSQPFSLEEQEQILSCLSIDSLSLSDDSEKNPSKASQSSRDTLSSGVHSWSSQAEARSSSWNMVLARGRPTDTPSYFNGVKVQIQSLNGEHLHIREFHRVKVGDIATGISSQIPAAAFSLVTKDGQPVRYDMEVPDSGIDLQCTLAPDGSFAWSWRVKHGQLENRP
Method: NIK Enzyme Inhibition Assay:
The ability of the nuclear factor-kappa B (NF-kB)-inducing kinase (NIK) to catalyze the hydrolysis of adenosine-5′-triphosphate (ATP) was monitored using the Transcreener ADP (adenosine-5′-diphosphate) assay (BellBrook Labs). […] Reactions were quenched by the addition of 20 mM 2,2′,2″,2′″-(ethane-1,2-diyldinitrilo)tetraacetic acid and 0.01% Brij 35. The tracer bound to the antibody was displaced by the ADP generated during the NIK reaction, which causes a decrease in fluorescence polarization that was measured by laser excitation at 633 nm with a Fluorescence Correlation Spectroscopy Plus reader (Evotec AG). Equilibrium dissociation constant (Ki) values for NIK inhibitors are calculated from plots of activity vs. inhibitor concentration using Morrison's quadratic equation that accounts for the potential of tight binding, and by also applying the conversion factor that accounted for competitive inhibition and the concentration of substrate used in the assay relative to its Michaelis constant (Km).

[3] = tested on: REL-A (p65) nuclear translocation in HeLa cells; experiment: REL-A (p65) nuclear translocation assay in HeLa cells, TNF-α stimulated (classical NF-kB signaling), high content imaging; format: cell-based; details: compound 4.5 h, then 10 ng/mL TNF-α for 30 minutes, read-out: REL-A HeLa Transloc Assay (IC50)
How it was run: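 HeLa cells in medium with 10% fetal bovine serum were exposed to compounds (0.2% DMSO final) for 4.5 hours, then stimulated with 10 ng/mL TNF-α for 30 minutes. After fixation in 4% paraformaldehyde and permeabilization with 0.1% Triton X-100, cells were stained with 400 ng/mL anti-REL-A (p65) antibody, an Alexa488 secondary and DRAQ5. Opera imaging quantified the nuclear-to-cytoplasmic signal ratio to give IC50.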

CN1CC[C@@](O)(C#Cc2cccc(-c3cc(-n4cccn4)cc(C(N)=O)n3)c2)C1=O [Example 52, 6-[3-[2-[(3R)-3-hydroxy-1-methyl-2-oxo-pyrrolidin-3-yl]ethynyl]phenyl]-4-pyrazol-1-yl-pyridine-2-carboxamide]
IC50 ([1]; Homo sapiens): 26 nM
Ki [2]: 0.13 nM
IC50 ([3]; Homo sapiens, HeLa): ≥ 20000 nM

CN1CC[C@@](O)(C#Cc2cccc(-c3cc(-c4ccnn4C)nc(C(N)=O)n3)c2)C1=O [Example 53, 4-[3-[2-[(3R)-3-hydroxy-1-methyl-2-oxo-pyrrolidin-3-yl]ethynyl]phenyl]-6-(2-methylpyrazol-3-yl) pyrimidine-2-carboxamide]
IC50 ([1]; Homo sapiens): 725 nM
Ki [2]: 0.67 nM
IC50 ([3]; Homo sapiens, HeLa): ≥ 20000 nM

CN1CC[C@@](O)(C#Cc2cccc(-c3nc(C(N)=O)c(N)cc3F)c2)C1=O [Example 59, 3-amino-5-fluoro-6-[3-[2-[(3R)-3-hydroxy-1-methyl-2-oxo-pyrrolidin-3-yl]ethynyl]phenyl] pyridine-2-carboxamide]
IC50 ([1]; Homo sapiens): 23.2 nM
Ki [2]: 0.16 nM
IC50 ([3]; Homo sapiens, HeLa): 6320 nM

CN1CC[C@@](O)(C#Cc2cccc(-c3nc(C(N)=O)c(Cl)cc3F)c2)C1=O [Example 60, 3-chloro-5-fluoro-6-[3-[2-[(3R)-3-hydroxy-1-methyl-2-oxo-pyrrolidin-3-yl]ethynyl]phenyl] pyridine-2-carboxamide]
IC50 ([1]; Homo sapiens): 1390 nM
Ki [2]: 5.61 nM
IC50 ([3]; Homo sapiens, HeLa): ≥ 20000 nM

CN1CC[C@@](O)(C#Cc2cccc(-c3cnc(N)c(C(N)=O)n3)c2)C1=O [Example 62, 3-amino-6-[3-[2-[(3R)-3-hydroxy-1-methyl-2-oxo-pyrrolidin-3-yl]ethynyl]phenyl] pyrazine-2-carboxamide]
IC50 ([1]; Homo sapiens): 11.5 nM
Ki [2]: 0.11 nM
IC50 ([3]; Homo sapiens, HeLa): 1000 nM

CN1CC[C@@](O)(C#Cc2cccc(-c3nc(C(N)=O)cc(-c4cncn4C)n3)c2)C1=O [Example 66, 2-[3-[2-[(3R)-3-hydroxy-1-methyl-2-oxo-pyrrolidin-3-yl]ethynyl]phenyl]-6-(3-methylimidazol-4-yl) pyrimidine-4-carboxamide]
IC50 ([1]; Homo sapiens): 139 nM
Ki [2]: 0.16 nM
IC50 ([3]; Homo sapiens, HeLa): ≥ 20000 nM

CCn1nccc1-c1cc(C(N)=O)nc(-c2cccc(C#C[C@]3(O)CCN(C)C3=O)c2)n1 [Example 67, 6-(2-ethylpyrazol-3-yl)-2-[3-[2-[(3R)-3-hydroxy-1-methyl-2-oxo-pyrrolidin-3-yl]ethynyl]phenyl] pyrimidine-4-carboxamide]
IC50 [1]: 21.8 nM
Ki ([2]; purified NIK 0.5 nM, 10 μM ATP, pH 7.2, Ki from Morrison's quadratic equation): 0.08 nM
IC50 [3]: ≥ 20000 nM

CN1CC[C@@](O)(C#Cc2cccc(-c3nc(C(N)=O)cc(-c4ccn(C)n4)n3)c2)C1=O [Example 68, 2-[3-[2-[(3R)-3-hydroxy-1-methyl-2-oxo-pyrrolidin-3-yl]ethynyl]phenyl]-6-(1-methylpyrazol-3-yl) pyrimidine-4-carboxamide]
IC50 ([1]; Homo sapiens): 89.4 nM
Ki [2]: 0.53 nM
IC50 ([3]; Homo sapiens, HeLa): ≥ 20000 nM

CN1CC[C@@](O)(C#Cc2cccc(-c3nc(C(N)=O)cc(-c4ccn[nH]4)n3)c2)C1=O [Example 69, 2-[3-[2-[(3R)-3-hydroxy-1-methyl-2-oxo-pyrrolidin-3-yl]ethynyl]phenyl]-6-(1H-pyrazol-5-yl)pyrimidine-4-carboxamide]
IC50 ([1]; Homo sapiens): 206 nM
Ki [2]: 0.6 nM
IC50 ([3]; Homo sapiens, HeLa): ≥ 20000 nM

CN1CC[C@@](O)(C#Cc2cccc(-c3nc(C(N)=O)cc(-n4ccnc4)n3)c2)C1=O [Example 70, 2-[3-[2-[(3R)-3-hydroxy-1-methyl-2-oxo-pyrrolidin-3-yl]ethynyl]phenyl]-6-imidazol-1-yl-pyrimidine-4-carboxamide]
IC50 ([1]; Homo sapiens): 79 nM
Ki [2]: 0.94 nM
IC50 ([3]; Homo sapiens, HeLa): ≥ 20000 nM

Cc1ccnn1-c1cc(C(N)=O)nc(-c2cccc(C#C[C@]3(O)CCN(C)C3=O)c2)n1 [Example 71, 2-[3-[2-[(3R)-3-hydroxy-1-methyl-2-oxo-pyrrolidin-3-yl]ethynyl]phenyl]-6-(5-methylpyrazol-1-yl) pyrimidine-4-carboxamide]
IC50 ([1]; Homo sapiens): 8.94 nM
Ki [2]: 0.18 nM
IC50 ([3]; Homo sapiens, HeLa): ≥ 20000 nM

CN1CC[C@@](O)(C#Cc2cccc(-c3nc(C(N)=O)c(N)c(-n4cccn4)n3)c2)C1=O [Example 72, 5-amino-2-[3-[2-[(3R)-3-hydroxy-1-methyl-2-oxo-pyrrolidin-3-yl]ethynyl]phenyl]-6-pyrazol-1-yl-pyrimidine-4-carboxamide]
IC50 ([1]; Homo sapiens): 6.43 nM
Ki [2]: 0.05 nM
IC50 ([3]; Homo sapiens, HeLa): 6320 nM

CN1CC[C@@](O)(C#Cc2cccc(-c3nc(C(N)=O)cc4c3cnn4C)c2)C1=O [Example 74, 4-[3-[2-[(3R)-3-hydroxy-1-methyl-2-oxo-pyrrolidin-3-yl]ethynyl]phenyl]-1-methyl-pyrazolo[4,3-c]pyridine-6-carboxamide]
IC50 ([1]; Homo sapiens): 60.2 nM
Ki [2]: 0.53 nM
IC50 ([3]; Homo sapiens, HeLa): ≥ 20000 nM

Cc1cnc2c(-c3cccc(C#C[C@]4(O)CCN(C)C4=O)c3)nc(C(N)=O)cn12 [Example 75, 8-[3-[2-[(3R)-3-hydroxy-1-methyl-2-oxo-pyrrolidin-3-yl]ethynyl]phenyl]-3-methyl-imidazo[1,2-a]pyrazine-6-carboxamide]
IC50 ([1]; Homo sapiens): 66.8 nM
Ki [2]: 0.38 nM
IC50 ([3]; Homo sapiens, HeLa): ≥ 20000 nM

Cc1cn2cc(C(N)=O)nc(-c3cccc(C#C[C@]4(O)CCN(C)C4=O)c3)c2n1 [Example 76, 8-[3-[2-[(3R)-3-hydroxy-1-methyl-2-oxo-pyrrolidin-3-yl]ethynyl]phenyl]-2-methyl-imidazo[1,2-a] pyrazine-6-carboxamide]
IC50 ([1]; Homo sapiens): 101 nM
Ki [2]: 0.86 nM
IC50 ([3]; Homo sapiens, HeLa): ≥ 20000 nM

CN1CC[C@@](O)(C#Cc2cc3c(c(-c4cccc(C(N)=O)n4)c2)OCC3)C1=O [Example 77, 6-[5-[2-[(3R)-3-hydroxy-1-methyl-2-oxo-pyrrolidin-3-yl]ethynyl]-2,3-dihydrobenzofuran-7-yl] pyridine-2-carboxamide]
IC50 ([1]; Homo sapiens): 247 nM
Ki [2]: 0.99 nM
IC50 ([3]; Homo sapiens, HeLa): ≥ 20000 nM

CN1CC[C@@](O)(C#Cc2cccc(-c3cc4c(Cl)c[nH]c4c(C(N)=O)n3)c2)C1=O [Example 78, 3-chloro-5-[3-[2-[(3R)-3-hydroxy-1-methyl-2-oxo-pyrrolidin-3-yl]ethynyl]phenyl]-1H-pyrrolo[2,3-c]pyridine-7-carboxamide]
IC50 ([1]; Homo sapiens): 8.3 nM
Ki [2]: 0.1 nM
IC50 ([3]; Homo sapiens, HeLa): 15700 nM

CN1CC[C@@](O)(C#Cc2cccc(-c3nc(C(N)=O)c(NC4COC4)cc3F)c2)C1=O [Example 79, 5-fluoro-6-[3-[2-[(3R)-3-hydroxy-1-methyl-2-oxo-pyrrolidin-3-yl]ethynyl]phenyl]-3-(oxetan-3-ylamino)pyridine-2-carboxamide]
IC50 ([1]; Homo sapiens): 9.86 nM
Ki [2]: 0.05 nM
IC50 ([3]; Homo sapiens, HeLa): ≥ 20000 nM

COCCNc1cc(F)c(-c2cccc(C#C[C@]3(O)CCN(C)C3=O)c2)nc1C(N)=O [Example 80, 5-fluoro-6-[3-[2-[(3R)-3-hydroxy-1-methyl-2-oxo-pyrrolidin-3-yl]ethynyl]phenyl]-3-(2-methoxyethylamino) pyridine-2-carboxamide]
IC50 ([1]; Homo sapiens): 4.65 nM
Ki [2]: 0.05 nM
IC50 ([3]; Homo sapiens, HeLa): ≥ 20000 nM

CN1CC[C@@](O)(C#Cc2cccc(-c3nc(C(N)=O)c(NC[C@@H]4CCO4)cc3F)c2)C1=O [Example 81, 5-fluoro-6-[3-[2-[(3R)-3-hydroxy-1-methyl-2-oxo-pyrrolidin-3-yl]ethynyl]phenyl]-3-[[(2S)-oxetan-2-yl]methylamino] pyridine-2-carboxamide]
IC50 ([1]; Homo sapiens): 50.8 nM
Ki [2]: 0.05 nM
IC50 ([3]; Homo sapiens, HeLa): ≥ 2000 nM

CN1CC[C@@](O)(C#Cc2cccc(-c3nc(C(N)=O)c(NC[C@H]4CCO4)cc3F)c2)C1=O [Example 82, 5-fluoro-6-[3-[2-[(3R)-3-hydroxy-1-methyl-2-oxo-pyrrolidin-3-yl]ethynyl]phenyl]-3-[[(2R)-oxetan-2-yl]methylamino] pyridine-2-carboxamide]
IC50 ([1]; Homo sapiens): 95.5 nM
Ki [2]: 0.33 nM
IC50 ([3]; Homo sapiens, HeLa): ≥ 2000 nM

CN1CC[C@@](O)(C#Cc2cccc(-c3nc(C(N)=O)c(NCC(F)(F)F)cc3F)c2)C1=O [Example 83, 5-fluoro-6-[3-[2-[(3R)-3-hydroxy-1-methyl-2-oxo-pyrrolidin-3-yl]ethynyl]phenyl]-3-(2,2,2-trifluoroethylamino) pyridine-2-carboxamide]
IC50 ([1]; Homo sapiens): 11 nM
Ki [2]: 0.15 nM
IC50 ([3]; Homo sapiens, HeLa): 1000 nM

CN1CC[C@@](O)(C#Cc2ccc(F)c(-c3ccc(N)c(C(N)=O)n3)c2)C1=O [Example 84, 3-amino-6-[2-fluoro-5-[2-[(3R)-3-hydroxy-1-methyl-2-oxo-pyrrolidin-3-yl]ethynyl]phenyl] pyridine-2-carboxamide]
IC50 ([1]; Homo sapiens): 14.2 nM
Ki [2]: 0.05 nM
IC50 ([3]; Homo sapiens, HeLa): 1000 nM

CN1CC[C@@](O)(C#Cc2ccc(F)c(-c3ccc(NC4COC4)c(C(N)=O)n3)c2)C1=O [Example 85, 6-[2-fluoro-5-[2-[(3R)-3-hydroxy-1-methyl-2-oxo-pyrrolidin-3-yl]ethynyl]phenyl]-3-(oxetan-3-ylamino)pyridine-2-carboxamide]
IC50 ([1]; Homo sapiens): 5.88 nM
Ki [2]: 0.05 nM
IC50 ([3]; Homo sapiens, HeLa): 6320 nM

COCCNc1ccc(-c2cc(C#C[C@]3(O)CCN(C)C3=O)ccc2F)nc1C(N)=O [Example 86, 6-[2-fluoro-5-[2-[(3R)-3-hydroxy-1-methyl-2-oxo-pyrrolidin-3-yl]ethynyl]phenyl]-3-(2-methoxyethylamino) pyridine-2-carboxamide]
IC50 ([1]; Homo sapiens): 6.27 nM
Ki [2]: 0.1 nM
IC50 ([3]; Homo sapiens, HeLa): ≥ 20000 nM
